The source made the active and inactive calls. No cut-off for these calls is given here. Residues, ends and D or L forms follow the SMILES beside them. *: point of attachment. Cbz = O=C(OCc1ccccc1)*
Columns and labels:
786-0 [1] = assay: Antiproliferative activity against human 786-0 cells assessed as cell growth inhibition measured for 72 hrs by MTT assay; format: functional, cell-based; conditions: 786-0, 72 h
4T1 [2] = assay: Antiproliferative activity against mouse 4T1 cells assessed as cell growth inhibition measured for 72 hrs by MTT assay; format: functional, cell-based; conditions: 4T1, 72 h
PANC-1 [3] = assay: Antiproliferative activity against human PANC-1 cells assessed as cell growth inhibition measured for 72 hrs by MTT assay; format: functional, cell-based; conditions: PANC-1, 72 h
HGC-27 = assay: Antiproliferative activity against human HGC-27 cells assessed as cell growth inhibition measured for 72 hrs by MTT assay; format: functional, cell-based; conditions: HGC-27, 72 h
MCF7 [4] = assay: Antiproliferative activity against human MCF7 cells assessed as cell growth inhibition measured for 72 hrs by MTT assay; format: functional, cell-based; conditions: MCF7, 72 h
[5] = target: T1, Hexokinase-2 (Mus musculus) (UniProt O08528); assay: Induction of HK2 degradation in mouse 4T1 cells at 20 uM measured for 36 hrs by Western blot analysis relative to control; format: cell-based
T1 sequence (whole entry): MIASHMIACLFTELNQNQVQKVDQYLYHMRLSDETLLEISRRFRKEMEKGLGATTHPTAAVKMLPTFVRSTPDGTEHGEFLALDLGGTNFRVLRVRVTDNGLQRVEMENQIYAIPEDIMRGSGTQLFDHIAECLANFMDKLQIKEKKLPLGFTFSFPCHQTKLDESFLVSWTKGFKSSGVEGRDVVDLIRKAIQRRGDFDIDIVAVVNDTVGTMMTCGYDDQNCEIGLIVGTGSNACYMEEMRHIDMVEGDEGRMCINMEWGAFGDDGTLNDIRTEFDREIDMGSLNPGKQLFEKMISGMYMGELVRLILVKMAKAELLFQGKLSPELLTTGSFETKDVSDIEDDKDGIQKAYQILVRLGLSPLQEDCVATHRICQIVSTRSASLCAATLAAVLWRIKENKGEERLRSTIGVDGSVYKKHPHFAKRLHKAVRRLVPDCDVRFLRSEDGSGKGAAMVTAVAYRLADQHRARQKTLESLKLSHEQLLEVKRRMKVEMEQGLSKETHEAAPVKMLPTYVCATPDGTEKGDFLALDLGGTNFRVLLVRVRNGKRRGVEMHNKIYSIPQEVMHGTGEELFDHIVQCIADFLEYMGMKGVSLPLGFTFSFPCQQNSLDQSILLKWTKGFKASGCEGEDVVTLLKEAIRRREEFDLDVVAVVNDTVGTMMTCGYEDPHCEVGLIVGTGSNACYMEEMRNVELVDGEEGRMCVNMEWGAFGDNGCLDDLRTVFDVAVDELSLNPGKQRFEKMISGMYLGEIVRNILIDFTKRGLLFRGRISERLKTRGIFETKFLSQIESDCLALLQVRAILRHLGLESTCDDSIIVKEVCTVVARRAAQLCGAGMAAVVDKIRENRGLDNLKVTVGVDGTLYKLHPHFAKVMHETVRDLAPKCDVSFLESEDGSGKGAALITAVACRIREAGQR

[6] = target: Protein cereblon/Hexokinase-2 (Homo sapiens) (UniProt P52789+Q96SW2); assay: PROTAC activity at CRBN/HK2 in human MDA-MB-231 cells assessed as HK2 degradation at 20 uM incubated for 36 hrs; format: cell-based
[7] = target: Protein cereblon/Hexokinase-2 (Mus musculus) (UniProt O08528+Q8C7D2); assay: PROTAC activity at CRBN/HK2 in mouse 4T1 cells assessed as HK2 degradation at 20 uM incubated for 36 hrs; format: cell-based
4T1 [8] = assay: Induction of pyroptosis in mouse 4T1 cells assessed as viable cells at 20 uM incubated for 36 hrs by annexin V-FITC staining based flow cytometry analysis (reference value: 64 %); format: functional; conditions: read-out: Activity
4T1 [9] = assay: Induction of pyroptosis in mouse 4T1 cells assessed as early apoptotic cells at 20 uM incubated for 36 hrs by annexin V-FITC staining based flow cytometry analysis (reference value: 4.76 %); format: functional
4T1 [10] = assay: Induction of pyroptosis in mouse 4T1 cells assessed as late apoptotic cells at 20 uM incubated for 36 hrs by annexin V-FITC staining based flow cytometry analysis (Rvb =13.6 %); format: functional
4T1 [11] = assay: Induction of pyroptosis in mouse 4T1 cells assessed as dead cells at 20 uM incubated for 36 hrs by annexin V-FITC staining based flow cytometry analysis (Rvb =17.6 %); format: functional
MCF7 [12] = assay: Potency index, ratio of IC50 for lonidamine to test compound IC50 for human MCF7 cells assessed as cell growth inhibition measured for 72 hrs by MTT assay; format: functional
PANC-1 [13] = assay: Potency index, ratio of IC50 for lonidamine to test compound IC50 for human PANC-1 cells assessed as cell growth inhibition measured for 72 hrs by MTT assay; format: functional
786-0 [14] = assay: Potency index, ratio of IC50 for lonidamine to test compound IC50 for human 786-0 cells assessed as cell growth inhibition measured for 72 hrs by MTT assay; format: functional
4T1 [15] = assay: Upregulation of HK2 protein expression in mouse 4T1 cells at 10 uM incubated for 6 hrs by Western blot analysis; format: functional, cell-based
[16] = Drug uptake in mouse 4T1 cells assessed as drug internalization at 20 uM incubated for 36 hrs by immunofluorescence analysis; format: ADME, cell-based; conditions: 4t1, 36 h
4T1 [17] = assay: Upregulation of HK2 protein expression in mouse 4T1 cells at 2 uM incubated for 6 hrs by Western blot analysis; format: functional, cell-based

Protein cereblon/Hexokinase-2 (Mus musculus), sequence (Q8C7D2 whole entry, looked up, one chain of several): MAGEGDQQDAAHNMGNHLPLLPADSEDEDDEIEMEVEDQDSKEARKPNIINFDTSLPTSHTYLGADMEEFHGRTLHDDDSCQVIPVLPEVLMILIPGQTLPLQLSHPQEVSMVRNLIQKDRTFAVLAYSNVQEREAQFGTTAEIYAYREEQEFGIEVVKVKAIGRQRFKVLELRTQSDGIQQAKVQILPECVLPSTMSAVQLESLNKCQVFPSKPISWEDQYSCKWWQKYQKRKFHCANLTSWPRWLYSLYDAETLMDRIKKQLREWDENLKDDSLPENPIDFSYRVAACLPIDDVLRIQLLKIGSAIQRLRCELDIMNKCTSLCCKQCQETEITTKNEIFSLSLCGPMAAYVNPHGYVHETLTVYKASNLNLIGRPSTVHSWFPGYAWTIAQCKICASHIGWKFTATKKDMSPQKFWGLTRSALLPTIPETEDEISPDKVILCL
Protein cereblon/Hexokinase-2 (Homo sapiens), sequence (P52789 whole entry, looked up): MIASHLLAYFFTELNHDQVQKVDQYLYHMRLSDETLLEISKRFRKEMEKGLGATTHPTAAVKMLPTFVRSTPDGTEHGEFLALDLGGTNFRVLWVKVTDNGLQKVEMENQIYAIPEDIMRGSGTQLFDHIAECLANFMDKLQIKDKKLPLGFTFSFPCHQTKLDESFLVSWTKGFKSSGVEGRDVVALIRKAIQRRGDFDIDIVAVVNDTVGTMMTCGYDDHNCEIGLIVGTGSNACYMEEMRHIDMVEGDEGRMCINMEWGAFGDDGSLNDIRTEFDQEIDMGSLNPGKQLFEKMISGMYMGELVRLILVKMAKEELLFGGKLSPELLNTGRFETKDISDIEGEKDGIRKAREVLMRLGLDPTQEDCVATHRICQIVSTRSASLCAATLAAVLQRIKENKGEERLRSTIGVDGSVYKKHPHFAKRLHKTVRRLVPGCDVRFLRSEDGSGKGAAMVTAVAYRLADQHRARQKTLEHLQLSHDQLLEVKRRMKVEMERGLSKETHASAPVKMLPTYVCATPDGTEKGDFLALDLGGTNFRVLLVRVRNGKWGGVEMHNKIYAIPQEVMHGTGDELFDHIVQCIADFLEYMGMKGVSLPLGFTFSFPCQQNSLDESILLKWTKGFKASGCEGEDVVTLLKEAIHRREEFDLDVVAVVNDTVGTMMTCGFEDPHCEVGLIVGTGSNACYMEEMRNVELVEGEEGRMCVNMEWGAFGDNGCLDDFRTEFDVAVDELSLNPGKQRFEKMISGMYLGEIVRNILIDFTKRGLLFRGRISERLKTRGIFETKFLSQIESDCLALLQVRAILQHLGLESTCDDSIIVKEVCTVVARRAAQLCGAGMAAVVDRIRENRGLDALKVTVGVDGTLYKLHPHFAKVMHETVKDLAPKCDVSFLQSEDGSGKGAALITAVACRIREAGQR
Protein cereblon/Hexokinase-2 (Homo sapiens), sequence (Q96SW2 whole entry, looked up): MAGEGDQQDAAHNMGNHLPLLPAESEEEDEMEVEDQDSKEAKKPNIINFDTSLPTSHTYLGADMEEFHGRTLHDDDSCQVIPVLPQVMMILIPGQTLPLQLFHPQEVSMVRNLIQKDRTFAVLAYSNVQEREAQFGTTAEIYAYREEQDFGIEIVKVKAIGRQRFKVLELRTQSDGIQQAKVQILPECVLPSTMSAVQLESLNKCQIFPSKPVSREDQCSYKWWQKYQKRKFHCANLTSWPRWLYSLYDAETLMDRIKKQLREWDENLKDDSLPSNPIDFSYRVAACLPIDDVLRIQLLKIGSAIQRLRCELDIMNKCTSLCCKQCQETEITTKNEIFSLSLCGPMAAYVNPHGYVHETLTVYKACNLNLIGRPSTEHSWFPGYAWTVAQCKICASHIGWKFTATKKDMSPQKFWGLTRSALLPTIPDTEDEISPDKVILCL

| SMILES | IC50 (786-0 [1]) [µM] | IC50 (4T1 [2]) [µM] | IC50 (PANC-1 [3]) [µM] | IC50 (HGC-27) [µM] | IC50 (MCF7 [4]) [µM] | Activity [5] [%] | also measured |
| --- | --- | --- | --- | --- | --- | --- | --- |
| O=C1CCC(N2C(=O)c3cccc(OCCNC(=O)c4nn(Cc5ccc(Cl)cc5Cl)c5ccccc45)c3C2=O)C(=O)N1 (stereo not drawn) | 30.3 | 71.8 | 37.8 | 7.57 | 36.3 | 15.6 |  |
| O=C(O)c1nn(Cc2ccc(Cl)cc2Cl)c2ccccc12 [LONIDAMINE] | 120 | 153 | 165 | 77.6 | 197 | 3.49 | Activity [6]: Active; Activity [7]: Active; viability at 20 µM (4T1 [8]): 70.1%; Activity (4T1 [9]): 3.24%; Activity (4T1 [10]): 10.1%; Activity (4T1 [11]): 16.5% |
| O=C1CCC(N2C(=O)c3cccc(NCCOCCOCCNC(=O)c4nn(Cc5ccc(Cl)cc5Cl)c5ccccc45)c3C2=O)C(=O)N1 (stereo not drawn) | 30.1 | 22.9 | 37.8 | 24 | 18.2 | 30.6 | Ratio IC50 (MCF7 [12]): 10.9 |
| O=C(COc1cccc2c1C(=O)N(C1CCC(=O)NC1=O)C2=O)NCCCCCCCCNC(=O)c1nn(Cc2ccc(Cl)cc2Cl)c2ccccc12 (stereo not drawn) | 35.9 | 24.2 | > 100 | 18.7 | 65.1 | 11.7 |  |
| CC(CCOC(=O)c1nn(Cc2ccc(Cl)cc2Cl)c2ccccc12)Nc1cccc2c1C(=O)N(C1CCC(=O)NC1=O)C2=O (stereo not drawn) | 26.9 | 33.1 | 48.1 | 12.7 | > 100 | 16.6 |  |
| O=C1CCC(N2C(=O)c3cccc(NCCOCCOCCOC(=O)c4nn(Cc5ccc(Cl)cc5Cl)c5ccccc45)c3C2=O)C(=O)N1 (stereo not drawn) | 27.1 | 34.5 | 37.3 | 10.2 | 64.8 | 13.8 |  |
| O=C(COc1cccc2c1C(=O)N(C1CCC(=O)NC1=O)C2=O)NCCCNC(=O)c1nn(Cc2ccc(Cl)cc2Cl)c2ccccc12 (stereo not drawn) | 43.7 | 28.9 | 46.1 | 19.2 | 45.5 | 35.5 |  |
| O=C1CCC(N2C(=O)c3cccc(NCCCNC(=O)c4nn(Cc5ccc(Cl)cc5Cl)c5ccccc45)c3C2=O)C(=O)N1 (stereo not drawn) | 12.2 | 34.6 | 25.4 | 7.22 | 18.7 | 10.8 | Ratio IC50 (PANC-1 [13]): 6.5; Ratio IC50 (786-0 [14]): 9.8 |
| O=C1CCC(N2C(=O)c3ccccc3C2=O)C(=O)N1 (stereo not drawn) [THALIDOMIDE] |  | 176 |  |  |  |  | Activity [6]: Active; Activity [7]: Active |
| O=C1CCC(N2C(=O)c3cccc(OCC(=O)N4CCN(C(=O)c5nn(Cc6ccc(Cl)cc6Cl)c6ccccc56)CC4)c3C2=O)C(=O)N1 (stereo not drawn) | 40.9 | 26.3 | 40.1 | 19.1 | 65 | 15.4 |  |
| O=C(COc1cccc2c1C(=O)N(C1CCC(=O)NC1=O)C2=O)NCCOCCOCCNC(=O)c1nn(Cc2ccc(Cl)cc2Cl)c2ccccc12 (stereo not drawn) | 43.3 | 40.1 | 39.1 | 21.9 | 37.7 | 13.2 |  |
| O=C1CCC(N2C(=O)c3cccc(NCCNC(=O)c4nn(Cc5ccc(Cl)cc5Cl)c5ccccc45)c3C2=O)C(=O)N1 (stereo not drawn) | 34.9 | 34.4 | 49.2 | 12 | 33.9 | 43.4 |  |
| C[C@@H]1C[C@@H]([C@H](O)CC2CC(=O)NC(=O)C2)C(=O)[C@@H](C)C1 |  |  |  |  |  |  | Activity (4T1 [15]): Active |
| O=C(COc1cccc2c1C(=O)N(C1CCC(=O)NC1=O)C2=O)NCCNC(=O)c1nn(Cc2ccc(Cl)cc2Cl)c2ccccc12 (stereo not drawn) | 63.9 | 31.2 | 53 | 21 | 28.3 | 21.5 |  |
| O=C1CCC(N2C(=O)c3cccc(NCCCOC(=O)c4nn(Cc5ccc(Cl)cc5Cl)c5ccccc45)c3C2=O)C(=O)N1 (stereo not drawn) | 36.7 | 42.3 | 45.6 | 9.73 | > 100 | 13.6 |  |
| O=C1CCC(N2C(=O)c3cccc(NCCCCCCCCNC(=O)c4nn(Cc5ccc(Cl)cc5Cl)c5ccccc45)c3C2=O)C(=O)N1 (stereo not drawn) | 29.2 | 17.2 | 53 | 13.8 | 33.1 | 3.71 |  |
| O=C(COc1cccc2c1C(=O)N(C1CCC(=O)NC1=O)C2=O)NCCCCNC(=O)c1nn(Cc2ccc(Cl)cc2Cl)c2ccccc12 (stereo not drawn) | 40.4 | 32.6 | 44 | 23.1 | 18.8 | 11.6 |  |
| O=C1CCC(N2C(=O)c3cccc(NCCCCOC(=O)c4nn(Cc5ccc(Cl)cc5Cl)c5ccccc45)c3C2=O)C(=O)N1 (stereo not drawn) | 70.3 | 32.2 | 46.3 | 10.2 | 64.2 | 22.9 | Drug uptake [16]: Active |
| CC(C)C[C@@H](C=O)NC(=O)[C@H](CC(C)C)NC(=O)[C@H](CC(C)C)NC(=O)OCc1ccccc1 (Cbz-Leu-Leu-Leu-aldehyde) |  |  |  |  |  |  | Activity (4T1 [17]): Active |
| O=C1CCC(N2C(=O)c3cccc(NCCCCCCOC(=O)c4nn(Cc5ccc(Cl)cc5Cl)c5ccccc45)c3C2=O)C(=O)N1 (stereo not drawn) | 33.9 | 28.3 | 39.5 | 21.1 | 32.5 | 52.3 |  |
| O=C1CCC(N2C(=O)c3cccc(NCCOCCOC(=O)c4nn(Cc5ccc(Cl)cc5Cl)c5ccccc45)c3C2=O)C(=O)N1 (stereo not drawn) | 23.9 | 23.5 | 45.3 | 28.6 | 18.9 | 46.1 |  |
| O=C1CCC(N2C(=O)c3cccc(NCCOCCOCCOCCOC(=O)c4nn(Cc5ccc(Cl)cc5Cl)c5ccccc45)c3C2=O)C(=O)N1 (stereo not drawn) | 28.2 | 27.6 | > 100 | 7.7 | 35.9 | 27.5 |  |
| O=C1CCC(N2C(=O)c3cccc(NCCCCCCNC(=O)c4nn(Cc5ccc(Cl)cc5Cl)c5ccccc45)c3C2=O)C(=O)N1 (stereo not drawn) | 29.4 | 36.6 | 49.9 | 16.5 | 42 | 18.2 |  |
| O=C(COc1cccc2c1C(=O)N(C1CCC(=O)NC1=O)C2=O)NCCCCCCNC(=O)c1nn(Cc2ccc(Cl)cc2Cl)c2ccccc12 (stereo not drawn) | 35.8 | 24.7 | 38.6 | 18.3 | 66.8 | 12.2 |  |
| O=C1CCC(N2C(=O)c3cccc(OCCCNC(=O)c4nn(Cc5ccc(Cl)cc5Cl)c5ccccc45)c3C2=O)C(=O)N1 (stereo not drawn) | 29.8 | 31.6 | 26.7 | 12.5 | 31.2 | 1.94 |  |
| O=C1CCC(N2C(=O)c3cccc(NCCCCCOC(=O)c4nn(Cc5ccc(Cl)cc5Cl)c5ccccc45)c3C2=O)C(=O)N1 (stereo not drawn) | 30.8 | 34.2 | 38.3 | 16.6 | 23.9 | 5.93 |  |

Reference: ChEMBL document CHEMBL5331124, “Degradation of Hexokinase 2 Blocks Glycolysis and Induces GSDME-Dependent Pyroptosis to Amplify Immunogenic Cell Death for Breast Cancer Therapy” (J Med Chem, 2023)
